Reference: US12655124B2, “Heterocyclic compounds as modulators of stimulator of interferon genes (STING)” (RYVU THERAPEUTICS S.A., priority 2019, dated 2026)
Where a name gives a salt, the structure may show the parent alone.

Assays:
[1] = tested on: interferon regulatory factor (IRF) pathway in THP-1 dual cells; assay: THP-1 Dual reporter assay, IRF pathway (luciferase); type: cell-based; conditions: Homo sapiens, THP1-Dual, 18 h stimulation, luminescence
Protocol: (§1) THP-1 Dual Reporter Assay
(§2) Compounds of the present invention were tested for their activity using THP-1 dual cells (Invivogen, cat no. thpd-nfis) allowing for simultaneous study of NF-κB pathway and the interferon regulatory factor (IRF) pathway. THP-1 dual cells contain luciferase reporter gene under the control of an ISG54 (interferon-stimulated gene) minimal promoter in conjunction with five interferon-stimulated response elements and a secreted embryonic alkaline phosphatase reporter gene under the control an IFN (interferon)-β minimal promoter fused to five copies of the NF-κB consensus transcriptional response element with three copies of the c-Rel binding site. Following 18 h of stimulation with STING agonist, medium was collected and transferred onto fresh cell culture plate. To verify activity of the IRF pathway, luminescence activity was measured with standard laboratory plate reader immediately after addition 10 μl of the medium to 40 or 50 μl of luminescence reagent (Invivogen, cat. No. rep-qlc2). To verify activity of NF-κB pathway, 10 or 20 μl of the medium was mixed with 80 μl of a detection medium (Invivogen, cat. No. rep-qb2) and incubated for 1 or 2 hours at 37° C. in a humidified atmosphere containing 5% CO2. Next, absorbance at 630 or 655 nm was recorded using standard laboratory plate reader.

[2] = tested on: NF-κB pathway in THP-1 dual cells; assay: THP-1 Dual reporter assay, NF-κB pathway (SEAP); type: cell-based; conditions: Homo sapiens, THP1-Dual, 18 h stimulation, absorbance at 630 or 655 nm, read-out: THP1 Dual EC50 (μM) NFkB
Protocol: as §1, §2

human STING = human STING (Homo sapiens, UniProt Q86WV6); assay: Fluorescence Thermal Shift assay (hSTING FTS binding assay); conditions: ΔTm, STING 0.1 mg/mL, SyproOrange, 25 to 99° C.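 Also: STING preincubated with compound for 20 min in HEPES NaCl buffer pH 7.5.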
Sequence of human STING (Q86WV6 whole entry H232R): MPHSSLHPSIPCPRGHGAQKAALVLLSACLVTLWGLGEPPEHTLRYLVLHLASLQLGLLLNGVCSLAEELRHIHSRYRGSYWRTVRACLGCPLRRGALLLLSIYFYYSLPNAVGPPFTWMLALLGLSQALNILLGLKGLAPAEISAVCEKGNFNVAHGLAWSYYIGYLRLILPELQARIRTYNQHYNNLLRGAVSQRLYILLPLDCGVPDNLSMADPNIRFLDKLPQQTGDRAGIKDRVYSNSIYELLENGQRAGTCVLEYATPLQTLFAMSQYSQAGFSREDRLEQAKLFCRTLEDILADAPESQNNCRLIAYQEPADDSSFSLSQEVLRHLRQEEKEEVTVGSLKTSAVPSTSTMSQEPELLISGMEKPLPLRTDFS
Protocol: Fluorescence Thermal Shift Assay Compounds of the present invention were tested for binding to human STING in Fluorescence Thermal Shift assay. […] Final STING concentration was 0.1 mg/mL. Thermal unfolding was performed in Real-Time PCR QuantStudio 6 Flex System (Applied Biosystems), from 25 to 99° C., with continuous ramp mode and ramp rate 0.033° C./s. The data were analyzed using Protein Thermal Shift Software (ThermoFisher).

Compound | EC50 [1] [µM] | EC50 [2] [µM] | hSTING FTS binding assay (ΔT ° C.) (human STING)
Cc1ccc(N2CCC[C@H](N(Cc3ccnc(C)c3)Cc3cn(C)c4cc(N5CC[C@H](N)C(F)(F)C5)ccc4c3=O)C2)cn1 (single isomer, unassigned) [Example 51] | ≤ 1 | 1 to 10 | 
Cc1ccc(N2CCC[C@H](N(Cc3ccnc(C)c3)Cc3cn(CCN)c4ccccc4c3=O)C2)cn1 [Example 18, 1-(2-Aminoethyl)-3-({[(3S)-1-(6-methylpyridin-3-yl)piperidin-3-yl][(2-methylpyridin-4-yl)methyl]amino}methyl)-1,4-dihydroquinolin-4-one] | 1 to 10 | 1 to 10 | + (ΔTm≤10° C.)
Cc1cc(CN(Cc2cn(C(C)C)c3cc(F)c(F)cc3c2=O)[C@H]2CCCN(c3ccc(N)nc3)C2)ccn1.Cl [Example 24, 3-({[(3S)-1-(6-aminopyridin-3-yl)piperidin-3-yl][(2-methylpyridin-4-yl)methyl]amino}methyl)-6,7-difluoro-1-(propan-2-yl)-1,4-dihydroquinolin-4-one Hydrochloride] | ≤ 1 | ≤ 1 | +++ (ΔTm≥20° C.)
Cc1ccc(N2CCC[C@H](N(Cc3ccnc(C)c3)Cc3cn(C4CC4)c4cc(NC(=O)CN)c(F)cc4c3=O)C2)cn1 [Example 25, 2-amino-N-[1-cyclopropyl-6-fluoro-3-({[(3S)-1-(6-methylpyridin-3-yl)piperidin-3-yl][(2-methylpyridin-4-yl)methyl]amino}methyl)-4-oxo-1,4-dihydroquinolin-7-yl]acetamide] | ≤ 1 | ≤ 1 | +++ (ΔTm≥20° C.)
Cc1ccc(N2CCC[C@H](N(Cc3ccnc(C)c3)Cc3cn(C4CC4)c4nc(N)c(F)cc4c3=O)C2)cn1 [Example 36, 7-amino-1-cyclopropyl-6-fluoro-3-({[(3S)-1-(6-methylpyridin-3-yl)piperidin-3-yl][(2-methylpyridin-4-yl)methyl]amino}methyl)-1,4-dihydro-1,8-naphthyridin-4-one] | ≤ 1 | ≤ 1 | 
Cc1cc(CN(Cc2cn(C)c3ccccc3c2=O)[C@H]2CCCN(c3ccc(CCO)nc3)C2)ccn1 [Example 43, 3-({[(3S)-1-[6-(2-hydroxyethyl)pyridin-3-yl]piperidin-3-yl][(2-methylpyridin-4-yl)methyl]amino}methyl)-1-methyl-1,4-dihydroquinolin-4-one] | 1 to 10 | 1 to 10 | 
Cc1cc(CN(Cc2cn(C)c3ccccc3c2=O)[C@H]2CCCN(c3cncc(CO)c3)C2)ccn1 [Example 44, 3-({[(3S)-1-[5-(hydroxymethyl)pyridin-3-yl]piperidin-3-yl][(2-methylpyridin-4-yl)methyl]amino}methyl)-1-methyl-1,4-dihydroquinolin-4-one] | ≥ 10 | ≥ 10 | 
Cc1ccc(N2CCC[C@H](N(Cc3ccnc(C)c3)Cc3cn(C4CC4)c4cc(N5CC[C@@H](O)C5)ccc4c3=O)C2)cn1 [Example 45, 1-cyclopropyl-7-[(3R)-3-hydroxypyrrolidin-1-yl]-3-({[(3S)-1-(6-methylpyridin-3-yl)piperidin-3-yl][(2-methylpyridin-4-yl)methyl]amino}methyl)-1,4-dihydroquinolin-4-one] | ≤ 1 | ≤ 1 | +++ (ΔTm≥20° C.)
Cc1cc(CN(Cc2cn(C)c3cc(N4CCC(C(=O)O)CC4)ccc3c2=O)[C@H]2CCCN(c3cccnc3)C2)ccn1 [Example 46, 1-[1-methyl-3-({[(2-methylpyridin-4-yl)methyl][(3S)-1-(pyridin-3-yl)piperidin-3-yl]amino}methyl)-4-oxo-1,4-dihydroquinolin-7-yl]piperidine-4-carboxylic Acid] | ≥ 10 | ≥ 10 | ++ (10<ΔTm<20° C.)
Cc1ccc(N2CCC[C@H](N(Cc3ccnc(C)c3)Cc3cn(C4CC4)c4cc(OCCO)c(F)cc4c3=O)C2)cn1 [Example 47, 1-Cyclopropyl-6-fluoro-7-(2-hydroxyethoxy)-3-({[(3S)-1-(6-methylpyridin-3-yl)piperidin-3-yl][(2-methylpyridin-4-yl)methyl]amino}methyl)-1,4-dihydroquinolin-4-one] | ≤ 1 | ≤ 1 | +++ (ΔTm≥20° C.)
Cc1ccc(N2CCC[C@H](N(Cc3ccnc(C)c3)Cc3cn(C4CC4)c4cc(-n5cc(C(N)=O)nn5)c(F)cc4c3=O)C2)cn1 [Example 60, 1-[1-Cyclopropyl-6-fluoro-3-({[(3S)-1-(6-methylpyridin-3-yl)piperidin-3-yl][(2-methylpyridin-4-yl)methyl]amino}methyl)-4-oxo-1,4-dihydroquinolin-7-yl]-1H-1,2,3-triazole-4-carboxamide] | ≤ 1 | ≤ 1 | 
Cc1ccc(N2CCC[C@H](N(Cc3ccnc(C)c3)Cc3cn(C4CC4)c4cc(-n5cc(CO)nn5)c(F)cc4c3=O)C2)cn1 [Example 61, 1-Cyclopropyl-6-fluoro-7-[4-(hydroxymethyl)-1H-1,2,3-triazol-1-yl]-3-({[(3S)-1-(6-methylpyridin-3-yl)piperidin-3-yl][(2-methylpyridin-4-yl)methyl]amino}methyl)-1,4-dihydroquinolin-4-one] | ≤ 1 | ≤ 1 | 
Cc1ccc(N2CCC[C@H](N(Cc3ccnc(C)c3)Cc3cn(C)c4c(OCCO)cccc4c3=O)C2)cn1 [Example 63, 8-(2-hydroxyethoxy)-1-methyl-3-({[(3S)-1-(6-methylpyridin-3-yl)piperidin-3-yl][(2-methylpyridin-4-yl)methyl]amino}methyl)-1,4-dihydroquinolin-4-one] | ≤ 1 | ≤ 1 | 
COc1cc(CN(Cc2cn(C3CC3)c3cc(N4CC[C@@H](O)C4)c(F)cc3c2=O)[C@H]2CCCN(c3cccnc3)C2)ccn1 [Example 65, 1-cyclopropyl-6-fluoro-7-[(3R)-3-hydroxypyrrolidin-1-yl]-3-({[(2-methoxypyridin-4-yl)methyl][(3S)-1-(pyridin-3-yl)piperidin-3-yl]amino}methyl)-1,4-dihydroquinolin-4-one Hydrochloride] | ≤ 1 | ≤ 1 | 
Cc1ccc(N2CCC[C@H](N(Cc3ccnc(C)c3)Cc3cn(C4CC4)c4cc(CN)c(F)cc4c3=O)C2)cn1 [Example 80, 7-(aminomethyl)-1-cyclopropyl-6-fluoro-3-({[(3S)-1-(6-methylpyridin-3-yl)piperidin-3-yl][(2-methylpyridin-4-yl)methyl]amino}methyl)-1,4-dihydroquinolin-4-one] | ≤ 1 | ≤ 1 | 
Cc1cc(CN(Cc2cn(C3CC3)c3cc(OCCO)c(F)cc3c2=O)[C@H]2CCCN(c3cccnc3)C2)ccn1 [Example 84, 1-cyclopropyl-6-fluoro-7-(2-hydroxyethoxy)-3-({[(2-methylpyridin-4-yl)methyl][(3S)-1-(pyridin-3-yl)piperidin-3-yl]amino}methyl)-1,4-dihydroquinolin-4-one Hydrochloride] | ≤ 1 | ≤ 1 | 
Cc1cc(CN(Cc2cn(C3CC3)c3cc(OCCO)c(F)cc3c2=O)[C@H]2CCCN(c3ccc(Cl)nc3)C2)ccn1 [Example 97, 3-({[(3S)-1-(6-chloropyridin-3-yl)piperidin-3-yl][(2-methylpyridin-4-yl)methyl]amino}methyl)-1-cyclopropyl-6-fluoro-7-(2-hydroxyethoxy)-1,4-dihydroquinolin-4-one Hydrochloride] | ≤ 1 | ≤ 1 | 
